The values that follow come from patent publication US11084781B2, “Diarylureas as CB1 allosteric modulators” (Research Triangle Institute, priority 2017, dated 2021).

A value given as a limit tells only on which side of the number the result lay.

One experiment has as its target T1, CB1 receptor (Mus musculus, UniProt P47746).
T1 construct: from tissue; host or cells: cerebellar membranes of adult male CD-1 mice
Put plainly: [35S]GTP-γ-S binding assay in mouse cerebellar membranes, CP55,940-stimulated. It counts as biochemical. As to conditions: CP55,940 (100 nM) stimulation, mean (95% confidence interval). (Binding of GTPγS marks nucleotide exchange on a G protein.)

Experiment [1] deals with T2, human CB1 receptor (Homo sapiens, UniProt P21554).
T2 construct: host or cells: CHO-RD-HGA16 cells (CHO cells overexpressing promiscuous Galpha16)
Put plainly: CB1 calcium mobilization assay, agonist screen. To be noted: Table 1; 10,000 nM final concentration; mean ± SD. It counts as cell-based. In general terms: Calcium assays in cells follow changes in intracellular calcium, usually with a dye or a luminescent sensor.
Description: CHO-RD-HGA16 cells (Molecular Devices, CA) stably expressing the human CB1 receptor were plated into 96-well black-walled assay plates at 25,000 cells/well in 100 μL of Ham's F12 (supplemented with 10% fetal bovine serum, 100 units of penicillin/streptomycin, and 100 μg/mL Normocin) and incubated overnight at 37° C., 5% CO2. Calcium 5 dye (Molecular Devices, CA) was reconstituted according to the manufacturer's instructions. The reconstituted dye was diluted 1:40 in prewarmed (37° C.) assay buffer (1×HBSS, 20 mM HEPES, 2.5 mM probenecid, pH 7.4 at 37° C.). Growth medium was removed, and the cells were gently washed with 100 μL of prewarmed (37° C.) assay buffer. The cells were incubated for 45 min at 37° C., 5% CO2 in 200 μL of the diluted Calcium 5 dye solution. […] Serial dilutions of the test compounds were prepared at 10× the desired final concentration in 2.25% BSA/4.5% DMSO/4.5% EtOH/assay buffer. After the dye loading incubation period, the cells were pretreated with 25 μL of the test compound serial dilutions and incubated for 15 min at 37° C. After the pretreatment incubation period, the plate was read with a FLIPR Tetra (Molecular Devices, CA). Calcium-mediated changes in fluorescence were monitored every 1 s over a 90 s time period, with the Tetra adding 25 μL of the CP55,940 EC80 concentration at the 10s time point (excitation/emission: 485/525 nm). Relative fluorescence units (RFU) were plotted against the log of compound concentrations. Data were fit to a three-parameter logistic curve to generate IC50 values (GraphPad Prism 6.0, CA). […] For agonist screens, the above procedure was followed except that cells were pretreated with 2.25% BSA/4.5% DMSO/4.5% EtOH/assay buffer and the Tetra added single concentration dilutions of the test compounds prepared at 10× the desired final concentration in 0.25% BSA/0.5% DMSO/0.5% EtOH/assay buffer. Test compound RFUs were compared to the CP55,940 Emax RFUs to generate % Emax values.

Experiment [2] concerns the target T2, human CB1 receptor. Put plainly: CB1 calcium mobilization assay (antagonist mode, against EC80 of CP55,940). It counts as cell-based. To be noted: Table 1; against EC80 (100 nM) of CP55,940; mean ± S.E.M.; read-out: CB1 calcium assay IC50.
Description: CHO-RD-HGA16 cells (Molecular Devices, CA) stably expressing the human CB1 receptor were plated into 96-well black-walled assay plates at 25,000 cells/well in 100 μL of Ham's F12 (supplemented with 10% fetal bovine serum, 100 units of penicillin/streptomycin, and 100 μg/mL Normocin) and incubated overnight at 37° C., 5% CO2. Calcium 5 dye (Molecular Devices, CA) was reconstituted according to the manufacturer's instructions. The reconstituted dye was diluted 1:40 in prewarmed (37° C.) assay buffer (1×HBSS, 20 mM HEPES, 2.5 mM probenecid, pH 7.4 at 37° C.). Growth medium was removed, and the cells were gently washed with 100 μL of prewarmed (37° C.) assay buffer. […] After the pretreatment incubation period, the plate was read with a FLIPR Tetra (Molecular Devices, CA). […] Relative fluorescence units (RFU) were plotted against the log of compound concentrations. Data were fit to a three-parameter logistic curve to generate IC50 values (GraphPad Prism 6.0, CA). […] Test compound RFUs were compared to the CP55,940 Emax RFUs to generate % Emax values.
In these assays, CHO cells that overexpress the promiscuous Gα16 protein were engineered to stably express the CB1 or CB2 receptor. Compounds were evaluated for their ability to decrease the mobilization of intracellular calcium levels stimulated by CP55,940.

T2 sequence (P21554 whole entry): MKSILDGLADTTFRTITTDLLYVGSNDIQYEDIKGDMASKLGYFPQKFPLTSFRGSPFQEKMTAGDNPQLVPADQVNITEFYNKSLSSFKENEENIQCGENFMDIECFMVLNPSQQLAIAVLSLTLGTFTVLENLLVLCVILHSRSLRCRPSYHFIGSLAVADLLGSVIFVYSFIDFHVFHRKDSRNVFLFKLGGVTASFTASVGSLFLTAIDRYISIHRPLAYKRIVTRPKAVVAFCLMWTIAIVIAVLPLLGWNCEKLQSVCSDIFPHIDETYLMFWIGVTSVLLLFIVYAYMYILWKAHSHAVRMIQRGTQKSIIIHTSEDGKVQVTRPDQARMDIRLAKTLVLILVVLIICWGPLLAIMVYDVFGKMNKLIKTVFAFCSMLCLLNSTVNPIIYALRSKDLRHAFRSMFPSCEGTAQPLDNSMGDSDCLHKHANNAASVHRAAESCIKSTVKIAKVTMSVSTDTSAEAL
T1 sequence (P47746 whole entry): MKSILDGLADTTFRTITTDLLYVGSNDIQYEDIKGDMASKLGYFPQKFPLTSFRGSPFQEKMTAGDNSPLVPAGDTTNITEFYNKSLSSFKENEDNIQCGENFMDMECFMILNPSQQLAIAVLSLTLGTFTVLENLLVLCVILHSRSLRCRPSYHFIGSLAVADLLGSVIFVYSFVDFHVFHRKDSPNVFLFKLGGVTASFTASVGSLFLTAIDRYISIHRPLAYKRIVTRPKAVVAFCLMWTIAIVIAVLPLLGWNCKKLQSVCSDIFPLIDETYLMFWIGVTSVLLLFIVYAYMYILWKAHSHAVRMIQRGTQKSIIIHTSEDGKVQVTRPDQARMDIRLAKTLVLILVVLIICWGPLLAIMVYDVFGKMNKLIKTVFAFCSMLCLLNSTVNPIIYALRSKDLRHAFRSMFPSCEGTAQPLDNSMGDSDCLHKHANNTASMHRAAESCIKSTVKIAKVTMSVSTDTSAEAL

As usually defined, the IC50 is the point on the concentration scale where inhibition reaches its midpoint. With `O=C(Nc1ccc(Cl)cc1)Nc1cccc(-c2ccccc2)c1` [Compound 22, 3-(4-Chlorophenyl)-1-(3-phenylphenyl)urea], the 50% inhibitory concentration (IC50) on CB1 receptor amounted to 0.437 µM; on human CB1 receptor [2], 0.032 ± 0.007 µM. Also, the “CB1 calcium assay Agonist screen (% CP55, 940 Emax)” value on human CB1 receptor [1] is on record as 5.1 ± 0.8 % CP55, 940 Emax.

As to `COc1cccc(-c2cccc(NC(=O)Nc3ccc(Cl)cc3)c2)c1` [Compound 23, 3-(4-Chlorophenyl)-1-[3-(3-methoxyphenyl)phenyl]urea], the IC50 was determined as 0.827 µM on CB1 receptor and 0.081 ± 0.01 µM on human CB1 receptor [2]. The “CB1 calcium assay Agonist screen (% CP55, 940 Emax)” value at human CB1 receptor [1] is on record as 12.5 ± 1.9 % CP55, 940 Emax.

On to `O=C(Nc1ccc(Cl)cc1)Nc1cccc(-c2cccs2)c1` [Compound 48, 3-(4-Chlorophenyl)-1-[3-(thiophen-2-yl)phenyl]urea], for which the IC50 on CB1 receptor worked out at 0.573 µM; on human CB1 receptor [2], 0.067 ± 0.006 µM. Moreover, at human CB1 receptor [1], the “CB1 calcium assay Agonist screen (% CP55, 940 Emax)” value is listed as 12.8 ± 1.8 % CP55, 940 Emax.

As for `O=C(Nc1ccc(Cl)cc1)Nc1cccc(-c2ccc[nH]2)c1` [Compound 65, 3-(4-Chlorophenyl)-1-[3-(1H-pyrrol-2-yl)phenyl]urea], the IC50 at CB1 receptor is 0.04 µM; at human CB1 receptor [2], 0.169 ± 0.034 µM. The “CB1 calcium assay Agonist screen (% CP55, 940 Emax)” value at human CB1 receptor [1] is reported as 13.7 ± 0.1 % CP55, 940 Emax.

For `O=C(Nc1ccc(Cl)cc1)Nc1cccc(-c2cc(Cl)cc(Cl)c2)c1` [Compound 31, 3-(4-Chlorophenyl)-1-[3-(3,5-dichlorophenyl)phenyl]urea], the IC50 at CB1 receptor came to 0.299 µM; at human CB1 receptor [2] it was 0.022 ± 0.002 µM. The “CB1 calcium assay Agonist screen (% CP55, 940 Emax)” value on human CB1 receptor [1] was 15.5 ± 2.4 % CP55, 940 Emax.

As for `COc1cc(-c2cccc(NC(=O)Nc3ccc(Cl)cc3)c2)ccn1` [Compound 17, 3-(4-Chlorophenyl)-1-[3-(2-methoxypyridin-4-yl)phenyl]urea], the values for the IC50 at CB1 receptor and on human CB1 receptor [2] were 1.32 µM and 0.133 ± 0.006 µM, respectively. For the same molecule, the “CB1 calcium assay Agonist screen (% CP55, 940 Emax)” value on human CB1 receptor [1] is reported as 23.4 ± 1.9 % CP55, 940 Emax.

For the molecule `Cc1ccc(-c2cccc(NC(=O)Nc3ccc(Cl)cc3)c2)s1` [Compound 50, 3-(4-Chlorophenyl)-1-[3-(5-methylthiophen-2-yl)phenyl]urea], the IC50 is 0.372 µM at CB1 receptor and 0.042 ± 0.006 µM at human CB1 receptor [2]. At human CB1 receptor [1], the “CB1 calcium assay Agonist screen (% CP55, 940 Emax)” value was 4.6 ± 1.4 % CP55, 940 Emax.

For `O=C(Nc1ccc(Cl)cc1)Nc1cccc(-c2ccccn2)c1` [Compound 18, 3-(4-Chlorophenyl)-1-[3-(pyridin-2-yl)phenyl]urea], the IC50 is 2.65 µM on CB1 receptor and 0.047 ± 0.013 µM at human CB1 receptor [2]. Besides, the “CB1 calcium assay Agonist screen (% CP55, 940 Emax)” value at human CB1 receptor [1] is recorded as 8.8 ± 3.1 % CP55, 940 Emax.

On to `O=C(Nc1ccc(Cl)cc1)Nc1cccc(N2CC3(COC3)C2)c1` [Compound 84, 3-(4-Chlorophenyl)-1-(3-{2-oxa-6-azaspiro[3.3]heptan-6-yl}phenyl)urea], for which the figures for the IC50 at CB1 receptor and on human CB1 receptor [2] were greater than 10 µM and 0.792 ± 0.043 µM, respectively. Besides, the “CB1 calcium assay Agonist screen (% CP55, 940 Emax)” value at human CB1 receptor [1] is 28.8 ± 0.2 % CP55, 940 Emax.

Consider `O=C(Nc1ccc(Cl)cc1)Nc1cccc(-c2ccc3occc3c2)c1` [Compound 41, 1-[3-(1-Benzofuran-5-yl)phenyl]-3-(4-chlorophenyl)urea], for which the values for the IC50 at CB1 receptor and at human CB1 receptor [2] were 0.265 µM and 0.134 ± 0.013 µM, respectively. The “CB1 calcium assay Agonist screen (% CP55, 940 Emax)” value on human CB1 receptor [1] is on record as 0.2 ± 1.0 % CP55, 940 Emax.

Consider `O=C(Nc1ccc(Cl)cc1)Nc1cccc(-c2nccs2)c1` [Compound 53, 3-(4-Chlorophenyl)-1-[3-(1,3-thiazol-2-yl)phenyl]urea], for which the IC50 came to 1.26 µM at CB1 receptor and 0.154 ± 0.014 µM on human CB1 receptor [2]. Further, the “CB1 calcium assay Agonist screen (% CP55, 940 Emax)” value on human CB1 receptor [1] is reported as 20.1 ± 1.1 % CP55, 940 Emax.

As to `O=C(Nc1ccc(Cl)cc1)Nc1cccc(-c2ccsc2)c1` [Compound 47, 3-(4-Chlorophenyl)-1-[3-(thiophen-3-yl)phenyl]urea], the IC50 at CB1 receptor was 0.164 µM; at human CB1 receptor [2], 0.036 ± 0.001 µM. Moreover, the “CB1 calcium assay Agonist screen (% CP55, 940 Emax)” value on human CB1 receptor [1] is reported as 28.9 ± 0.6 % CP55, 940 Emax.
